This note sets out measurements from ChEMBL document CHEMBL4483862, “Open-source discovery of chemical leads for next-generation chemoprotective antimalarials” (2018).

The experiment concerns Plasmodium berghei. In words: Luciferase/luciferin-expressing antifolate-resistant parasites were used to infect a culture of HepG2 cells that were pre-incubated with compounds. Infected hepatocytes emit light due to the luciferase reaction. Assay results are presented as the percent inhibition of light emission compared to control. […]. It is filed as functional. The note with it: sporozoite; for IC90: read-out: LUCIFERASE INFECTION ASSAY - IC90.

[1] abbreviates: read-out: LUCIFERASE INFECTION ASSAY - IC50.

As usually defined, the IC50 is the concentration that gives 50% inhibition. The IC90 is the point of the concentration-response curve where the effect stands at 90%.

SMILES strings stand for the structures. A value given as a limit tells only on which side of the number the result lay.

For `CC1CCN(C(=O)COC(=O)c2cc(-c3ccc(Cl)cc3)nc3ccccc23)c2ccccc2S1` (stereo unspecified), the 90% effect concentration (IC90) was more than 10 µM. Besides, the IC50 (PBLUC_HILL_SLOPE 0.574, PBLUC_R_SQUARED 0.62, read-out: LUCIFERASE INFECTION ASSAY - IC50) turned out to be 2.73 µM.
On to `Oc1ccc(C2=CCN(c3ncnc4ccccc34)CC2)cc1`, for which the 90% effect concentration (IC90) was found to be 2.89 µM. Besides, the IC50 (HEPG2TOX_HILL_SLOPE 0.526, HEPG2TOX_R_SQUARED 0.691, PBLUC_HILL_SLOPE 1.57, PBLUC_R_SQUARED 0.66, read-out: LUCIFERASE INFECTION ASSAY - IC50) was found to be 0.716 µM.
For `COc1ccc2cc(C(C)C(=O)N3CCN(S(=O)(=O)/C=C/c4ccccc4)CC3)ccc2c1` (stereo unspecified), the 90% effect concentration (IC90) is more than 10 µM. The 50% inhibitory concentration (IC50) under setting [1] is more than 10 µM.
On to `CC(C)c1ccccc1N(C(=O)Cc1ccc(-c2ccccc2)cc1)c1nc2ccccc2s1`, for which the IC90 is more than 10 µM. Besides, under “FFLUC_HILL_SLOPE 11.9, FFLUC_R_SQUARED 0.677, HEPG2TOX_HILL_SLOPE 16.8, HEPG2TOX_R_SQUARED 0.508, PBLUC_HILL_SLOPE 1.31, PBLUC_R_SQUARED 0.0526, read-out: LUCIFERASE INFECTION ASSAY - IC50”, the IC50 was 6.43 µM.
With `Cc1ccccc1CNc1ncnc2sccc12`, the IC90 was more than 10 µM. Also, under setting [1], the half-maximal inhibitory concentration (IC50) came out at 5.22 µM.
As for `O=C(NC1CCOc2ccccc21)c1ccccc1Oc1ccccc1` (stereo unspecified), the concentration for an effect of 90% (IC90) was more than 10 µM. Also, the IC50 (HEPG2TOX_HILL_SLOPE 5.41, HEPG2TOX_R_SQUARED 0.0143, read-out: LUCIFERASE INFECTION ASSAY - IC50) is more than 10 µM.
Consider `COc1ccc(CN=C2NN=C(c3cc4ccccc4o3)CS2)cc1`, for which the concentration for an effect of 90% (IC90) is 0.318 µM. Besides, the IC50 (HEPG2TOX_HILL_SLOPE 1.33, HEPG2TOX_R_SQUARED 0.982, PBLUC_HILL_SLOPE 1.63, PBLUC_R_SQUARED 0.322, read-out: LUCIFERASE INFECTION ASSAY - IC50) was determined as 0.0829 µM.
In the case of `N#Cc1ccc(NC(=O)Cn2ncc(Cl)c(Cl)c2=O)cc1`, the concentration for an effect of 90% (IC90) came out at 5.23 µM. For the same compound, the IC50 (HEPG2TOX_HILL_SLOPE 73.2, HEPG2TOX_R_SQUARED 0.451, PBLUC_HILL_SLOPE 8.64, PBLUC_R_SQUARED 0.375, read-out: LUCIFERASE INFECTION ASSAY - IC50) was found to be 4.06 µM.
For the compound `Cc1ccc(C2NC(=S)NC3=C2C(=O)c2ccccc23)cc1` (stereo unspecified), the 90% effect concentration (IC90) is more than 10.8 µM. Besides, the IC50 under setting [1] was more than 10.8 µM.
In the case of `Clc1ccc(N/N=C/c2sccc2Oc2ccccc2)cc1`, the IC90 is more than 10 µM. Under setting [1], the IC50 is more than 10 µM.
With `N#C/C(=C\Nc1ccc(OC(F)(F)F)cc1)S(=O)(=O)c1ccc(Cl)cc1`, the IC90 was more than 8.19 µM. Further, the IC50 under setting [1] is more than 8.19 µM.
For the compound `CC(=O)Nc1ccc(NC(=O)/C=C/c2cc(C)n(-c3ccccc3)c2C)c(C(F)(F)F)c1`, the IC90 was found to be 9.3 µM. In addition, the 50% inhibitory concentration (IC50) (PBLUC_HILL_SLOPE 1.31, PBLUC_R_SQUARED 0.816, read-out: LUCIFERASE INFECTION ASSAY - IC50) turned out to be 1.74 µM.
On to `O=C(CNc1cccc(S(=O)(=O)N2CCCCC2)c1)NC(=O)NC1CCCCC1`, for which the 90% effect concentration (IC90) is more than 10 µM. In addition, the concentration for half-maximal inhibition (IC50) (PBLUC_HILL_SLOPE 11, PBLUC_R_SQUARED 0.0354, read-out: LUCIFERASE INFECTION ASSAY - IC50) amounted to 9.65 µM.
As to `CCOC(=O)c1[nH]c(C)c(C(=O)OCC(=O)Nc2ccc(S(=O)(=O)NC3=NCCCCC3)cc2)c1C`, the concentration for an effect of 90% (IC90) is more than 10 µM. Besides, the IC50 under setting [1] was more than 10 µM.
Consider `COc1cc(NC(=O)C(C)(C)n2cc(-c3ccc(OCCN4CCCC4)cc3)cn2)cc(OC)c1`, for which the 90% effect concentration (IC90) was more than 10 µM. Also, the IC50 under setting [1] was more than 10 µM.
Turning to `Cc1cc(Cl)ccc1NC(=O)c1cn(C)nc1C(F)(F)F`, the concentration for an effect of 90% (IC90) is more than 10 µM. Moreover, under setting [1], the IC50 was more than 10 µM.
For the compound `O=S(=O)(c1ccccc1)c1nc(/C=C/c2ccccc2)oc1NCc1ccco1`, the IC90 was more than 10 µM. The IC50 (PBLUC_HILL_SLOPE 2.89, PBLUC_R_SQUARED 0.0298, read-out: LUCIFERASE INFECTION ASSAY - IC50) worked out at 5.62 µM.
With `CC(CNC(=O)C1CCN(S(=O)(=O)c2cccs2)CC1)c1nc2ccccc2n1C(F)F` (stereo unspecified), the concentration for an effect of 90% (IC90) is more than 10 µM. In addition, the 50% inhibitory concentration (IC50) under setting [1] was more than 10 µM.
For the compound `NC(Cc1ccc(F)cc1)c1csc(Nc2ccc(-c3ccccc3)nn2)n1` (stereo unspecified), the IC90 is more than 8.43 µM. For the same compound, the half-maximal inhibitory concentration (IC50) (PBLUC_HILL_SLOPE 14.8, PBLUC_R_SQUARED 0.059, read-out: LUCIFERASE INFECTION ASSAY - IC50) was 8.32 µM.
On to `O=C(Nc1ccc2c(c1)OCO2)C1CCN(c2ccnc3cc(Cl)ccc23)CC1`, for which the IC90 was found to be 8.1 µM. Where the note is “HEPG2TOX_HILL_SLOPE 0.967, HEPG2TOX_R_SQUARED 0.942, PBLUC_HILL_SLOPE 2.72, PBLUC_R_SQUARED 0.6, read-out: LUCIFERASE INFECTION ASSAY - IC50”, the concentration for half-maximal inhibition (IC50) was 3.61 µM.
As to `CCN(CC)C(CNc1ccc([N+](=O)[O-])cn1)Cc1ccccc1` (stereo unspecified), the 90% effect concentration (IC90) was more than 10 µM. Besides, the IC50 under setting [1] stood at 7 µM.
Taken in the same sequence, the figures for `Cc1ccc(CN(C)C(=O)NNC(=O)c2ccccc2)c(C)c1` were more than 10 µM and more than 10 µM.
Regarding `Cc1[nH]c2ccccc2c1C(=O)NCC1(c2ccccc2)CCC1`, the IC90 is more than 10 µM. Where the note is “HEPG2TOX_HILL_SLOPE 3.6, HEPG2TOX_R_SQUARED 0.416, PBLUC_HILL_SLOPE 3.04, PBLUC_R_SQUARED 0.598, read-out: LUCIFERASE INFECTION ASSAY - IC50”, the 50% inhibitory concentration (IC50) stood at 7.33 µM.
As to `Cc1cccc(-n2cc(-c3ccccc3)c3c(N4CCN(C)CC4)ncnc32)c1`, the 90% effect concentration (IC90) is more than 10 µM. For the same compound, for the setting “HEPG2TOX_HILL_SLOPE 7.66, HEPG2TOX_R_SQUARED 0.38, PBLUC_HILL_SLOPE 2.7, PBLUC_R_SQUARED 0.572, read-out: LUCIFERASE INFECTION ASSAY - IC50”, the IC50 was 6.64 µM.
For `OC(COc1ccc2cc(Br)ccc2c1)CN1CCCC1` (stereo unspecified), the IC90 is more than 9.42 µM. Also, the half-maximal inhibitory concentration (IC50) (FFLUC_HILL_SLOPE 1.55, FFLUC_R_SQUARED 0.115, PBLUC_HILL_SLOPE 1.17, PBLUC_R_SQUARED 0.42, read-out: LUCIFERASE INFECTION ASSAY - IC50) turned out to be 4.73 µM.
For `CNC(=O)N(C1=NCC(C)(C)S1)c1cccc(C(F)(F)F)c1`, the IC90 is more than 9.96 µM. Moreover, under “HEPG2TOX_HILL_SLOPE 2.33, HEPG2TOX_R_SQUARED 0.841, PBLUC_HILL_SLOPE 2.51, PBLUC_R_SQUARED 0.0629, read-out: LUCIFERASE INFECTION ASSAY - IC50”, the IC50 came to 7.95 µM.
Take `NC(COCc1ccccc1)c1csc(NC(=O)Nc2cccc(C(F)(F)F)c2)n1` (stereo unspecified): the IC90 is more than 7.56 µM. Moreover, the IC50 (HEPG2TOX_HILL_SLOPE 2.5, HEPG2TOX_R_SQUARED 0.677, PBLUC_HILL_SLOPE 2.37, PBLUC_R_SQUARED 0.435, read-out: LUCIFERASE INFECTION ASSAY - IC50) came out at 5.16 µM.
As to `Cc1cc(C(=O)Nc2nc3ccc(Cl)cc3s2)c2c(C)nn(C)c2n1`, the IC90 was 9.09 µM. Further, the IC50 (HEPG2TOX_HILL_SLOPE 1.29, HEPG2TOX_R_SQUARED 0.966, PBLUC_HILL_SLOPE 2.52, PBLUC_R_SQUARED 0.194, read-out: LUCIFERASE INFECTION ASSAY - IC50) is 3.81 µM.
On to `CN1CCN(c2ccc(NC(=O)c3cc4c(s3)-c3ccccc3CC4)cn2)CC1`, for which the IC90 is 7.61 µM. The IC50 (HEPG2TOX_HILL_SLOPE 13, HEPG2TOX_R_SQUARED 0.777, PBLUC_HILL_SLOPE 77.5, 23.4, PBLUC_R_SQUARED 0.0252, 0.733, read-out: LUCIFERASE INFECTION ASSAY - IC50) came to 7.13 µM.
`CN(C)c1cccc(-c2cnc3cnc(-c4cnn(C)c4)cn23)c1`: the IC90 is more than 10.4 µM. Moreover, the IC50 (PBLUC_HILL_SLOPE 12.7, PBLUC_R_SQUARED 0.283, read-out: LUCIFERASE INFECTION ASSAY - IC50) was determined as 8.89 µM.
Regarding `O=C(CCc1c(-c2ccc(F)cc2)[nH]c2ccc(F)cc12)NCCN1CCOCC1`, the 90% effect concentration (IC90) was more than 10 µM. The concentration for half-maximal inhibition (IC50) (HEPG2TOX_HILL_SLOPE 0.681, HEPG2TOX_R_SQUARED 0.0413, read-out: LUCIFERASE INFECTION ASSAY - IC50) is more than 10 µM.
In the case of `COc1cc(-c2ccc(N3CCN(c4ccncc4)CC3)nc2)cc(OC)c1OC`, the concentration for an effect of 90% (IC90) is more than 8.12 µM. Also, the half-maximal inhibitory concentration (IC50) (HEPG2TOX_HILL_SLOPE 1.45, HEPG2TOX_R_SQUARED 0.424, PBLUC_HILL_SLOPE 3.58, PBLUC_R_SQUARED 0.452, read-out: LUCIFERASE INFECTION ASSAY - IC50) turned out to be 6.09 µM.
For the compound `Cc1cc2ncc(-c3ccnc(SCC(=O)C(C)(C)C)n3)c(C)n2n1`, the concentration for an effect of 90% (IC90) was more than 9.28 µM. For the same compound, under setting [1], the concentration for half-maximal inhibition (IC50) was more than 9.28 µM.
For the compound `CCCCCCCCNC(=O)/C(C#N)=C/c1ccc(C)cc1C`, the concentration for an effect of 90% (IC90) was more than 10 µM. Under setting [1], the 50% inhibitory concentration (IC50) was more than 10 µM.
Consider `CCOC(=O)c1c(C)[nH]c(C(=O)COC(=O)c2[nH]nc3ccccc23)c1C`, for which the IC90 is more than 10 µM. Besides, the IC50 (HEPG2TOX_HILL_SLOPE 3.07, HEPG2TOX_R_SQUARED 0.979, PBLUC_HILL_SLOPE 5.58, PBLUC_R_SQUARED 0.622, read-out: LUCIFERASE INFECTION ASSAY - IC50) was 8.71 µM.
For the compound `O=C(Cc1ccc(-c2ccccc2)cc1)NCc1cn2ccccc2n1`, the 90% effect concentration (IC90) was more than 10 µM. In addition, under “PBLUC_HILL_SLOPE 15.5, PBLUC_R_SQUARED 0.301, read-out: LUCIFERASE INFECTION ASSAY - IC50”, the IC50 was 8.96 µM.
In the case of `CC(C)(C)c1cnnn1-c1ccc(C(=O)/C=C/c2ccccc2)cc1`, the IC90 is more than 10 µM. For the same compound, the IC50 under setting [1] was more than 10 µM.
Regarding `Cc1n[nH]c(Nc2ccc(Oc3ccccc3)cc2)nc1=O`, the concentration for an effect of 90% (IC90) was more than 11.2 µM. Further, under setting [1], the IC50 was more than 11.2 µM.
